# Assay: physchem
# Settings: octan-1-ol/water, pH 7.4
row,SMILES,logD
1,CCC1(c2cccc(O)c2)CCCCN(C)C1 (stereo not drawn) [MEPTAZINOL],0.8
2,NC(=O)C[S+]([O-])C(c1ccccc1)c1ccccc1 (stereo not drawn) [MODAFINIL],1.12
3,CCn1cc(C(=O)O)c(=O)c2ccc(C)nc21 [NALIDIXIC ACID],-0.1
4,Oc1ccc2c3c1O[C@H]1c4[nH]c5ccccc5c4C[C@@]4(O)[C@@H](C2)N(CC2CC2)CC[C@]314 [NALTRINDOLE],2.7
5,O=C1C=CC(=O)c2c(O)ccc(O)c21 [NAPHTHAZALIN],1.91
6,CC1(C)CCC(NC(=O)[C@@H](N)CCC(=O)O)CC1 [NEBOGLAMINE],-0.27
7,CN1CCC[C@H]1c1cccnc1 [NICOTINE],0.5
8,NC(=O)c1cc([N+](=O)[O-])cc([N+](=O)[O-])c1 [NITROMIDE],0.81
9,CC(C)Oc1cccc(CC(=O)N2CCC[C@](CC[N+]34CCC(c5ccccc5)(CC3)CC4)(c3ccc(Cl)c(Cl)c3)C2)c1 [NOLPITANTIUM],1.23
10,Oc1ccc2c3c1O[C@H]1c4[nH]c5c(c4C[C@@]4(O)[C@@H](C2)N(CC2CC2)CC[C@]314)C[C@@]1(O)[C@H]2Cc3ccc(O)c4c3[C@@]1(CCN2CC1CC1)[C@H]5O4 [NORBINALTORPHIMINE],1.41
11,CCC1(c2ccccc2)C(=O)NC(=O)NC1=O [PHENOBARBITAL],0.05
12,O=C(N[C@H]1CN2CCC1CC2)c1ccc(Cl)cc1 [PNU-282987],0.6
13,c1ccc2ncccc2c1 [QUINOLINE],2.09
14,COCCCOc1ccnc(C[S+]([O-])c2nc3ccccc3[nH]2)c1C (stereo not drawn) [RABEPRAZOLE],-0.69
15,C[C@@H]1NC(C)(C)CO[C@@]1(O)c1cccc(Cl)c1 [RADAFAXINE],1.69
16,C=C(C)[C@H]1Cc2c(ccc3c2O[C@@H]2COc4cc(OC)c(OC)cc4[C@@H]2C3=O)O1 [ROTENONE],3.57
17,NC(=O)c1cn([C@@H]2O[C@H](CO)[C@@H](O)[C@H]2O)c2ncnc(N)c12 [SANGIVAMYCIN],-0.87
18,NC(Cc1ccc(N(CCCl)CCCl)cc1)C(=O)O (stereo not drawn) [SARCOLYSIN],0.39
19,CC(C)CC(N(C)C)C1(c2ccc(Cl)cc2)CCC1 (stereo not drawn) [SIBUTRAMINE],3.6
20,O=C(Oc1ccc(Br)cc1)N1CCN2CCC1CC2 [SSR180711],1.58
21,CC(=O)O[C@H]1CC[C@]2(C=O)[C@H]3CC[C@]4(C)[C@@H](C5=CC(=O)OC5)CC[C@]4(O)[C@@H]3CC[C@]2(O)C1 [STROPHANTHIDIN ACETATE],0.64
22,CCN(CC)C(=O)N[C@H]1C[C@@H]2c3cccc4[nH]cc(c34)C[C@H]2N(C)C1 [TERGURIDE],2.73
23,S=C(NC1CCCCC1)N1CCC(c2cnc[nH]2)CC1 [THIOPERAMIDE],2.3
24,CCC(COC(=O)c1cc(OC)c(OC)c(OC)c1)(c1ccccc1)N(C)C (stereo not drawn) [TRIMEBUTINE],3.77
25,CC(C)[C@H](N)C(=O)OCCOCn1cnc2c(=O)[nH]c(N)nc21 [VALACYCLOVIR],-1.3

# Same assay, conditions: octan-1-ol/water, pH 7.4, LogD7.4
row,SMILES,logD
1,CC(C)(N)C(=O)N[C@H](Cc1c[nH]c2ccccc12)C(=O)N[C@H](Cc1c[nH]c2ccccc12)NC=O [MACIMORELIN],1
2,CNC1(C)C2CCC(C2)C1(C)C (stereo not drawn) [MECAMYLAMINE],-0.84
3,Cc1ccc(Cl)c(Nc2ccccc2C(=O)O)c1Cl [MECLOFENAMIC ACID],2.33
4,CC(=O)[C@H]1CC[C@H]2[C@@H]3C[C@H](C)C4=CC(=O)CC[C@]4(C)[C@H]3[C@@H](O)C[C@]12C [MEDRYSONE],3.25
5,CCC1(c2ccccc2)NC(=O)N(C)C1=O (stereo not drawn) [MEPHENYTOIN],1.59
6,CN1CCCCC1CCN1c2ccccc2Sc2ccc([S+](C)[O-])cc21 (stereo not drawn) [MESORIDAZINE],1.6
7,COc1ccccc1OCC(O)COC(N)=O (stereo not drawn) [METHOCARBAMOL],0.36
8,Cc1ccccc1N1C(=O)c2cc(S(N)(=O)=O)c(Cl)cc2NC1C (stereo not drawn) [METOLAZONE],1.64
9,CN1CCN2c3ncccc3Cc3ccccc3C2C1 (stereo not drawn) [MIRTAZAPINE],2.82
10,CCc1c(C)[nH]c2c1C(=O)C(CN1CCOCC1)CC2 (stereo not drawn) [MOLINDONE],1.54
11,COc1ccc2cc(CCC(C)=O)ccc2c1 [NABUMETONE],3.06
12,Cc1cnc(NC(=O)c2cc(Oc3cnc(C(=O)N(C)C)nc3)c3cc(C)oc3c2)cn1 [NERIGLIATIN],2.1
13,O=C(O)c1cccnc1Nc1cccc(C(F)(F)F)c1 [NIFLUMIC ACID],1
14,CCn1cc(C(=O)O)c(=O)c2cc(F)c(N3CCNCC3)cc21 [NORFLOXACIN],-0.87
15,COc1ncc(-c2ccc3nccc(-c4ccnnc4)c3c2)cc1NS(=O)(=O)c1ccc(F)cc1F [OMIPALISIB],2.5
16,O=c1c(-c2ccc(O)c(O)c2)coc2cc(O)cc(O)c12 [OROBOL],2.45
17,Cc1[nH]c2ccccc2c1CCNCc1ccc(/C=C/C(=O)NO)cc1 [PANOBINOSTAT],1.1
18,COc1ccnc(C[S+]([O-])c2nc3ccc(OC(F)F)cc3[nH]2)c1OC (stereo not drawn) [PANTOPRAZOLE],2
19,CC(=O)CCCCn1c(=O)c2c(ncn2C)n(C)c1=O [PENTOXIFYLLINE],0.22
20,NCCCC(=O)OCCN1CCN(CCCN2c3ccccc3Sc3ccc(Cl)cc32)CC1 [PERPHENAZINE 4-AMINOBUTYRATE],1.5
21,CN(c1ncccc1CNc1nc(Nc2ccc3c(c2)CC(=O)N3)ncc1C(F)(F)F)S(C)(=O)=O [PF-00562271],2.63
22,OCCn1cc(-c2cnc3nnn(Cc4ccc5ncccc5c4)c3n2)cn1 [PF-04217903],1.7
23,CC(C)CNCc1ccc(-c2ccccc2S(=O)(=O)N2CCCC2)cc1 [PF-04455242],1.9

row,SMILES,logD
1,Nc1ccc(/N=N/c2ccccc2)c(N)n1 [PHENAZOPYRIDINE],3.22
2,NNCCc1ccccc1 [PHENELZINE],-0.01
3,CN1C(=O)CC(c2ccccc2)C1=O (stereo not drawn) [PHENSUXIMIDE],0.68
4,CN(C)CCOc1ccccc1Cc1ccccc1 [PHENYLTOLOXAMINE],2.53
5,COc1ccc(C(=O)NCc2cccnc2)cc1C(=O)NCc1cccnc1 [PICOTAMIDE],1.23
6,NS(=O)(=O)c1cc(C(=O)O)cc(N2CCCC2)c1Oc1ccccc1 [PIRETANIDE],-0.94
7,CCCN[C@H]1CCc2nc(N)sc2C1 [PRAMIPEXOLE],3.15
8,O=C(C1CCCCC1)N1CC(=O)N2CCc3ccccc3C2C1 (stereo not drawn) [PRAZIQUANTEL],2.43
9,CCCN(CCC)S(=O)(=O)c1ccc(C(=O)O)cc1 [PROBENECID],0.03
10,CCN(CC)CCOC(=O)c1ccc(N)cc1 [PROCAINE],0
11,CC(C)[N+](C)(CCOC(=O)C1c2ccccc2Oc2ccccc21)C(C)C [PROPANTHELINE],0.2
12,O=c1c(O)cccc2cc(O)c(O)c(O)c12 [PURPUROGALLIN],2.03
13,Cc1ncc(CO)c(CO)c1O [PYRIDOXINE],-0.58
14,O=C(Nc1nnn[nH]1)c1cc(Oc2ccccc2)c2ccccn2c1=O [QUINOTOLAST],0.67
15,CCC(=O)NCC[C@@H]1CCc2ccc3c(c21)CCO3 [RAMELTEON],2.57
16,NC(Cc1cc(I)c(Oc2ccc(O)c(I)c2)c(I)c1)C(=O)O (stereo not drawn) [RATHYRONINE],0.97
17,Cc1ccc(COC(=O)N2CC[C@H](CNc3ncccn3)[C@H](F)C2)cc1 [RISLENEMDAZ],3.21
18,CC(C)c1nc(CN(C)C(=O)N[C@H](C(=O)N[C@@H](Cc2ccccc2)C[C@H](O)[C@H](Cc2ccccc2)NC(=O)OCc2cncs2)C(C)C)cs1 [RITONAVIR],4.3
19,CC[C@H]1OC(=O)[C@H](C)[C@@H](O[C@H]2C[C@@](C)(OC)[C@@H](O)[C@H](C)O2)[C@H](C)[C@@H](O[C@@H]2O[C@H](C)C[C@H](N(C)C)[C@H]2O)[C@](C)(O)C[C@@H](C)/C(=N\OCOCCOC)[C@H](C)[C@@H](O)[C@]1(C)O [ROXITHROMYCIN],1.8
20,NC(=O)c1ccccc1O [SALICYLAMIDE],1.09
21,O=C(O)c1ccc2c(c1)nc(Nc1cccc(Cl)c1)c1ccncc12 [SILMITASERTIB],1.29
22,C[C@@H]1CN(c2c(F)c(N)c3c(=O)c(C(=O)O)cn(C4CC4)c3c2F)C[C@H](C)N1 [SPARFLOXACIN],-0.15
23,COc1ncnc(NS(=O)(=O)c2ccc(N)cc2)c1OC [SULFADOXINE],-0.73

row,SMILES,logD
1,Cc1ccnc(NS(=O)(=O)c2ccc(N)cc2)n1 [SULFAMERAZINE],-0.51
2,COc1cc2c(N3CCN(C(=O)Nc4ccc(OC(C)C)cc4)CC3)ncnc2cc1OCCCN1CCCCC1 [TANDUTINIB],2.6
3,CC(C)NCC(O)COc1nccs1 (stereo not drawn) [TAZOLOL],-0.97
4,Cn1nnc2c(C(N)=O)ncn2c1=O [TEMOZOLOMIDE],-1.08
5,CN(C/C=C/C#CC(C)(C)C)Cc1cccc2ccccc12 [TERBINAFINE],2.83
6,CCCCNc1ccc(C(=O)OCCN(C)C)cc1 [TETRACAINE],2.11
7,c1ccc2[nH]c(-c3cscn3)nc2c1 [THIABENDAZOLE],2.35
8,Clc1ccccc1CN1CCc2sccc2C1 [TICLOPIDINE],3.46
9,Cc1cccc(C)c1NC(=O)C(C)N (stereo not drawn) [TOCAINIDE],-0.15
10,Cc1ccc(C(=O)c2cc(O)c(O)c([N+](=O)[O-])c2)cc1 [TOLCAPONE],0.74
11,Cc1ccc(C(=O)C(C)CN2CCCCC2)cc1 (stereo not drawn) [TOLPERISONE],1.65
12,Cc1cccc(Nc2ccncc2S(=O)(=O)NC(=O)NC(C)C)c1 [TORSEMIDE],0.3
13,OC(CCN1CCCCC1)(c1ccccc1)C1CCCCC1 (stereo not drawn) [TRIHEXYPHENIDYL],2.68
14,COc1cc(C(=O)NCc2ccc(OCCN(C)C)cc2)cc(OC)c1OC [TRIMETHOBENZAMIDE],0.74
15,Cc1cc2cc3c(C)cc(=O)oc3c(C)c2o1 [TRIOXSALEN],3.47
16,CN(C)CCN(Cc1ccccc1)c1ccccn1 [TRIPELENNAMINE],1.28
17,N[C@@H](Cc1c[nH]c2ccccc12)C(=O)O [TRYPTOPHAN],-1.08
18,COC[C@@H](c1ccc(C(F)(F)F)cc1)N1CCN(C2(C)CCN(C(=O)c3c(C)ncnc3C)CC2)C[C@@H]1C [VICRIVIROC],2.7
19,CS(=O)(=O)c1ccc(C(=O)Nc2ccc(Cl)c(-c3ccccn3)c2)c(Cl)c1 [VISMODEGIB],2.84
20,Fc1ccc(-c2ncn(C3CCNCC3)c2-c2ccncc2)cc1 [VK-19911],0.3
21,COc1cccc([C@H](O)C2CCN(CCc3ccc(F)cc3)CC2)c1OC [VOLINANSERIN],1.7
22,COC(=O)[C@@H]1[C@H]2C[C@H]3c4[nH]c5ccccc5c4CCN3C[C@@H]2CC[C@@H]1O [YOHIMBINE],1.65
